Data reported in patent US20040156869A1, “2-substituted quinazolin-4-ylamine analogues” (Neurogen Corporation, priority 2002, published 2004).

Biological target: human capsaicin receptor (VR1) (Homo sapiens, UniProt Q8NER1)
Assay: Capsaicin receptor binding assay ([3H]RTX competition, VR1-transfected HEK293 membranes)
Settings: not given

Sequence of human capsaicin receptor (VR1) (Q8NER1 whole entry): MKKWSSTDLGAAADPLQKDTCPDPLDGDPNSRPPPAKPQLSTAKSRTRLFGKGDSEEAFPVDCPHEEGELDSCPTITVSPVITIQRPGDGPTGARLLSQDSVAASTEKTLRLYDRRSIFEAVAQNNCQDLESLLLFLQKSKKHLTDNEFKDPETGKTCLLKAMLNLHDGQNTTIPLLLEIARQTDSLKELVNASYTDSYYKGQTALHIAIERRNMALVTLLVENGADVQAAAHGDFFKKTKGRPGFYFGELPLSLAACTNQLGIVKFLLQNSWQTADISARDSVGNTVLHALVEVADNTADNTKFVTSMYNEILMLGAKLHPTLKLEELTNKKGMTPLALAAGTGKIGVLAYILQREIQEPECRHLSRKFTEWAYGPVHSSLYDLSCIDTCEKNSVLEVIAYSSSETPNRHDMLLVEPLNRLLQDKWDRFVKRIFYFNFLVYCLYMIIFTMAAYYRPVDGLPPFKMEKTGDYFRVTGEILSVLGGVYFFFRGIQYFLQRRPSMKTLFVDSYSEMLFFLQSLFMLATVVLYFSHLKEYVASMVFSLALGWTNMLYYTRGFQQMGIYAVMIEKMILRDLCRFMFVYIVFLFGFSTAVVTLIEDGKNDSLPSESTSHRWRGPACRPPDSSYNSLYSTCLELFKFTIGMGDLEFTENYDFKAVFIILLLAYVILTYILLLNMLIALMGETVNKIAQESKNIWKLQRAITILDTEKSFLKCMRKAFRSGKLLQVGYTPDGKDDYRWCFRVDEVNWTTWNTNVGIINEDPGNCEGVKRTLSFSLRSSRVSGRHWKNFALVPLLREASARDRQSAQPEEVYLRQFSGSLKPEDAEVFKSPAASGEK

Ki, < 1000 nM:
FC(F)(F)c1ccc(Nc2nc(CNCc3ccccc3)nc3cc(-c4ncccc4C(F)(F)F)ccc23)cn1 [Compound 574, [2-(Benzylamino-methyl)-7-(3-trifluoromethyl-pyridin-2-yl)-quinazolin-4-yl]-(6-trifluoromethyl-pyridin-3-yl)-amine]
CN(Cc1ccccc1)Cc1nc(Nc2ccc(C(F)(F)F)nc2)c2ccc(-c3ncccc3C(F)(F)F)cc2n1 [Compound 575, [2-[(Benzyl-methyl-amino)-methyl]-7-(3-trifluoromethyl-pyridin-2-yl)-quinazolin-4-yl]-(6-trifluoromethyl-pyridin-3-yl)-amine]
COc1ccccc1CNCc1nc(Nc2ccc(C(F)(F)F)nc2)c2ccc(-c3ncccc3C(F)(F)F)cc2n1 [Compound 576, [2-[(2-Methoxy-benzylamino)-methyl]-7-(3-trifluoromethyl-pyridin-2-yl)-quinazolin-4-yl]-(6-trifluoromethyl-pyridin-3-yl)-amine]
COc1ccc(CNCc2nc(Nc3ccc(C(F)(F)F)nc3)c3ccc(-c4ncccc4C(F)(F)F)cc3n2)cc1 [Compound 577, [2-[(4-Methoxy-benzylamino)-methyl]-7-(3-trifluoromethyl-pyridin-2-yl)-quinazolin-4-yl]-(6-trifluoromethyl-pyridin-3-yl)-amine]
FC(F)(F)c1ccc(Nc2nc(CNCc3ccccn3)nc3cc(-c4ncccc4C(F)(F)F)ccc23)cn1 [Compound 578, [2-{[(Pyridin-2-ylmethyl)-amino]-methyl}-7-(3-trifluoromethyl-pyridin-2-yl)-quinazolin-4-yl]-(6-trifluoromethyl-pyridin-3-yl)-amine]
FC(F)(F)c1ccc(Nc2nc(Cn3ccnc3)nc3cc(-c4ncccc4C(F)(F)F)ccc23)cn1 [Compound 579, [2-Imidazol-1-ylmethyl-7-(3-trifluoromethyl-pyridin-2-yl)-quinazolin-4-yl]-(6-trifluoromethyl-pyridin-3-yl)-amine]
O=S(=O)(c1ccc(Nc2nc(CN3CCOCC3)nc3cc(-c4ncccc4C(F)(F)F)ccc23)cc1)C(F)(F)F [Compound 580, [2-Morpholin-4-ylmethyl-7-(3-trifluoromethyl-pyridin-2-yl)-quinazolin-4-yl]-(4-trifluoromethanesulfonyl-phenyl)-amine]
CC1CN(Cc2nc(Nc3ccc(S(=O)(=O)C(F)(F)F)cc3)c3ccc(-c4ncccc4C(F)(F)F)cc3n2)CC(C)O1 (centres unmarked) [Compound 581, [2-(2,6-Dimethyl-morpholin-4-ylmethyl)-7-(3-trifluoromethyl-pyridin-2-yl)-quinazolin-4-yl]-(4-trifluoromethanesulfonyl-phenyl)-amine]
C[C@@H]1CN(Cc2nc(Nc3ccc(S(=O)(=O)C(F)(F)F)cc3)c3ccc(-c4ncccc4C(F)(F)F)cc3n2)C[C@H](C)O1 [Compound 582, [2-(2,6-Dimethyl-morpholin-4-ylmethyl)-7-(3-trifluoromethyl-pyridin-2-yl)-quinazolin-4-yl]-(4-trifluoromethanesulfonyl-phenyl)-amine (cis)]
CCCOC(=O)N1CCN(CCc2nc(Nc3ccc(C(F)(F)F)cc3)c3ccc(-c4ncccc4C(F)(F)F)cc3n2)CC1 [Compound 585, 4-{2-[4-(4-Trifluoromethyl-phenylamino)-7-(3-trifluoromethyl-pyridin-2-yl)-quinazolin-2-yl]-ethyl}-piperazine-1-carboxylic acid propyl ester]
OC1CCN(CCc2nc(Nc3ccc(C(F)(F)F)cc3)c3ccc(-c4ncccc4C(F)(F)F)cc3n2)CC1 [Compound 586, [2-(4-Hydroxy-piperidin-1-ylethyl)-7-(3-trifluoromethyl-pyridin-2-yl)-quinazolin-4-yl]-(4-trifluoromethyl-phenyl)-amine]
CC1CCCN(CCc2nc(Nc3ccc(C(F)(F)F)cc3)c3ccc(-c4ncccc4C(F)(F)F)cc3n2)C1 (centres unmarked) [Compound 587, [2-(3-Methyl-piperidin-1-ylethyl)-7-(3-trifluoromethyl-pyridin-2-yl)-quinazolin-4-yl]-(4-trifluoromethyl-phenyl)-amine]
OC1CCCN(CCc2nc(Nc3ccc(C(F)(F)F)cc3)c3ccc(-c4ncccc4C(F)(F)F)cc3n2)C1 (centres unmarked) [Compound 588, [2-(3-Hydroxy-piperidin-1-ylethyl)-7-(3-trifluoromethyl-pyridin-2-yl)-quinazolin-4-yl]-(4-trifluoromethyl-phenyl)-amine]
NC(=O)C1CCN(CCc2nc(Nc3ccc(C(F)(F)F)cc3)c3ccc(-c4ncccc4C(F)(F)F)cc3n2)CC1 [Compound 589, 1-{2-[4-(4-Trifluoromethyl-phenylamino)-7-(3-trifluoromethyl-pyridin-2-yl)-quinazolin-2-yl]-ethyl}-piperidine-4-carboxylic acid amide]
CCOC(=O)C1CCCN(CCc2nc(Nc3ccc(C(F)(F)F)cc3)c3ccc(-c4ncccc4C(F)(F)F)cc3n2)C1 (centres unmarked) [Compound 590, 1-{2-[4-(4-Trifluoromethyl-phenylamino)-7-(3-trifluoromethyl-pyridin-2-yl)-quinazolin-2-yl]-ethyl}-piperidine-3-carboxylic acid ethyl ester]
CCOC(=O)C1CCN(CCc2nc(Nc3ccc(C(F)(F)F)cc3)c3ccc(-c4ncccc4C(F)(F)F)cc3n2)CC1 [Compound 592, 1-{2-[4-(4-Trifluoromethyl-phenylamino)-7-(3-trifluoromethyl-pyridin-2-yl)-quinazolin-2-yl]-ethyl}-piperidine-4-carboxylic acid ethyl ester]
C[C@@H]1CN(Cc2nc(Nc3ccc(S(=O)(=O)C(F)(F)F)cc3)c3ncc(-c4ncccc4C(F)(F)F)cc3n2)C[C@H](C)O1 [Compound 593, [2-(2,6-Dimethyl-morpholin-4-ylmethyl)-7-(3-trifluoromethyl-pyridin-2-yl)-pyrido[3,2-d]pyrimidin-4-yl]-(4-trifluoromethanesulfonyl-phenyl)-amine (cis)]
CCCS(=O)(=O)c1ccc(Nc2nc(CN3C[C@@H](C)O[C@@H](C)C3)nc3cc(-c4ncccc4C(F)(F)F)cnc23)cc1 [Compound 594, [2-(2,6-Dimethyl-morpholin-4-ylmethyl)-7-(3-trifluoromethyl-pyridin-2-yl)-pyrido[3,2-d]pyrimidin-4-yl]-[4-(propane-1-sulfonyl)-phenyl]-amine (cis)]
CC(C)S(=O)(=O)c1ccc(Nc2nc(CN3C[C@@H](C)O[C@@H](C)C3)nc3cc(-c4ncccc4C(F)(F)F)cnc23)cc1 [Compound 595, [2-(2,6-Dimethyl-morpholin-4-ylmethyl)-7-(3-trifluoromethyl-pyridin-2-yl)-pyrido[3,2-d]pyrimidin-4-yl]-[4-(propane-2-sulfonyl)-phenyl]-amine (cis)]
C[C@@H]1CN(Cc2nc(Nc3ccc(C(F)(F)F)cc3)c3ccc(-c4ncccc4Cl)cc3n2)C[C@H](C)O1 [Compound 598, [7-(3-Chloro-pyridin-2-yl)-2-(2,6-dimethyl-morpholin-4-ylmethyl)-quinazolin-4-yl]-(4-trifluoromethyl-phenyl)-amine (cis)]
C[C@@H]1CN(Cc2nc(Nc3ccc(C(F)(F)F)nc3)c3ccc(-c4ncccc4Cl)cc3n2)C[C@H](C)O1 [Compound 599, [7-(3-Chloro-pyridin-2-yl)-2-(2,6-dimethyl-morpholin-4-ylmethyl)-quinazolin-4-yl]-(6-trifluoromethyl-pyridin-3-yl)-amine (cis)]
C[C@@H]1CN(Cc2nc(Nc3ccc(S(=O)(=O)C(F)(F)F)cc3)c3ccc(-c4ncccc4Cl)cc3n2)C[C@H](C)O1 [Compound 602, [7-(3-Chloro-pyridin-2-yl)-2-(2,6-dimethyl-morpholin-4-ylmethyl)-quinazolin-4-yl]-(4-trifluoromethanesulfonyl-phenyl)-amine (cis)]
Cc1cccnc1-c1cnc2c(Nc3ccc(C(F)(F)F)cc3)nc(CN3C[C@@H](C)O[C@@H](C)C3)nc2c1 [Compound 603, [2-(2,6-Dimethyl-morpholin-4-ylmethyl)-7-(3-methyl-pyridin-2-yl)-pyrido[3,2-d]pyrimidin-4-yl]-(4-trifluoromethyl-phenyl)-amine (cis)]
C[C@H]1CN(Cc2nc(Nc3ccc(C(F)(F)F)cc3)c3ccc(-c4ncccc4Cl)cc3n2)C[C@H](C)O1 [Compound 604, (S,S)-[7-(3-Chloro-pyridin-2-yl)-2-(2,6-dimethyl-morpholin-4-ylmethyl)-quinazolin-4-yl]-(4-trifluoromethyl-phenyl)-amine]
C[C@H]1CN(Cc2nc(Nc3ccc(C(C)(C)C)nc3)c3ccc(-c4ncccc4Cl)cc3n2)C[C@H](C)O1 [Compound 605, (S,S)-(6-tert-Butyl-pyridin-3-yl)-[7-(3-chloro-pyridin-2-yl)-2-(2,6-dimethyl-morpholin-4-ylmethyl)-quinazolin-4-yl]-amine]
C[C@@H]1CN(Cc2nc(Nc3ccc(C(F)(F)F)cc3)c3ccc(-c4ncccc4Cl)cc3n2)C[C@@H](C)O1 [Compound 606, (R,R)-[7-(3-Chloro-pyridin-2-yl)-2-(2,6-dimethyl-morpholin-4-ylmethyl)-quinazolin-4-yl]-(4-trifluoromethyl-phenyl)-amine]
C[C@@H]1CN(Cc2nc(Nc3ccc(C(C)(C)C)nc3)c3ccc(-c4ncccc4Cl)cc3n2)C[C@@H](C)O1 [Compound 607, (R,R)-(6-tert-Butyl-pyridin-3-yl)-[7-(3-chloro-pyridin-2-yl)-2-(2,6-dimethyl-morpholin-4-ylmethyl)-quinazolin-4-yl]-amine]
C[C@H]1CN(Cc2nc(Nc3ccc(C(F)(F)F)nc3)c3ccc(-c4ncccc4Cl)cc3n2)C[C@H](C)O1 [Compound 608, (S,S)-[7-(3-Chloro-pyridin-2-yl)-2-(2,6-dimethyl-morpholin-4-ylmethyl)-quinazolin-4-yl]-(6-trifluoromethyl-pyridin-3-yl)-amine]

Same assay, conditions: Table III; capsaicin receptor binding

Ki, < 1000 nM:
CC1CN(Cc2nc(Nc3ccc(C(C)(C)C)cc3)c3ncc(-c4ncccc4C(F)(F)F)cc3n2)CC(C)O1 (stereo not drawn) [Compound 583, (4-tert-Butyl-phenyl)-[2-(2,6-dimethyl-morpholin-4-ylmethyl)-7-(3-trifluoromethyl-pyridin-2-yl)-pyrido[3,2-d]pyrimidin-4-yl]-amine (cis)]
